Experimental data reported in patent publication US9675064B2, “Microbicidal composition” (Dow Global Technologies LLC, priority 2013, dated 2017).
Like-named read-outs stand apart in the source and are kept apart here.

Tests used:
Format in all cases: cell-based
[1] = tested on: any organism tested; test: Synergy index test, summary statements over the organisms tested; details: for Synergy of biocide paired with surfactant: against any organism tested; for ratio of surfactant to biocide where synergy was observed: not commercially relevant (less biocide relative to surfactant)
Procedure: Surfactants and biocides were evaluated for synergy by determining the synergy index (S.I.) of the combination. Synergy index was calculated based on minimum inhibitory concentrations (MIC) of two antimicrobial compounds (A and B) alone and in combinations. The tests organisms were Gram negative bacteria (Pseudomonas aeruginosa ATCC #15442), Gram positive bacteria (Staphylococcus aureus ATCC #6538), yeast (Candida albicans ATCC#10203) and mold (Aspergillus niger ATCC#16404). Contact time for the bacteria was 24 and 48 hours, yeast was 48 and 72 hrs, and 3 and 7 days for mold. The test was carried out in 96 well microtiter plates. R^1O(CH2CH(CH3)O)5(CH2CH2O)9H, Surf. A where R^1 is 2-ethylhexyl R^2O(CH2CH(CH3)O)3(CH2CH2O)5H Surf. D R^2O(CH2CH(CH3)O)3(CH2CH2O)7H Surf. E In Surf. D and Surf. E, R^2 is a mixture of C8-C14 linear alkyl groups (70% C8-C10 linear alkyl and 30% C12-C14 linear alkyl)
SI is calculated as follows: Ca/CA+Cb/CB=Synergy Index (“SI”)
Wherein: • CA=concentration of compound A in ppm, acting alone, which produced an end point (MIC of Compound A). • Ca=concentration of compound A in ppm, in the mixture, which produced an end point. • CB=concentration of compound B in ppm, acting alone, which produced an end point (MIC of Compound B). • Cb=concentration of compound B in ppm, in the mixture, which produced an end point. When the sum of Ca/CA and Cb/CB is greater than one, antagonism is indicated.

[2] = tested on: Aspergillus niger ATCC#16404; test: MIC / synergy index test in 96 well microtiter plates, mold; details: A. niger ATCC#16404, 3rd day, Media PDB; for MIC: Aspergillus niger, ATCC16404, read-out: CB (MIC of compound B acting alone), B: Potassium Sorbate
Procedure: (§1) Surfactants and biocides were evaluated for synergy by determining the synergy index (S.I.) of the combination. Synergy index was calculated based on minimum inhibitory concentrations (MIC) of two antimicrobial compounds (A and B) alone and in combinations. The tests organisms were Gram negative bacteria (Pseudomonas aeruginosa ATCC #15442), Gram positive bacteria (Staphylococcus aureus ATCC #6538), yeast (Candida albicans ATCC#10203) and mold (Aspergillus niger ATCC#16404). Contact time for the bacteria was 24 and 48 hours, yeast was 48 and 72 hrs, and 3 and 7 days for mold. The test was carried out in 96 well microtiter plates. […] E In Surf. D and Surf. […] [table] […] SI is calculated as follows: Ca/CA+Cb/CB=Synergy Index (“SI”) Wherein: • CA=concentration of compound A in ppm, acting alone, which produced an end point (MIC of Compound A). • Ca=concentration of compound A in ppm, in the mixture, which produced an end point. • CB=concentration of compound B in ppm, acting alone, which produced an end point (MIC of Compound B). • Cb=concentration of compound B in ppm, in the mixture, which produced an end point. When the sum of Ca/CA and Cb/CB is greater than one, antagonism is indicated.

[3] = tested on: Candida albicans ATCC#10203; test: MIC / synergy index test in 96 well microtiter plates, yeast; details: for MIC: Candida albicans, ATCC10203, 48 h
Procedure: as §1

[4] = tested on: Staphylococcus aureus ATCC #6538; test: MIC / synergy index test in 96 well microtiter plates, Gram positive bacteria; details: for CB (MIC of compound B acting alone): S. aureus ATCC# 6538, 24 hrs
Procedure: as §1

[5] = tested on: Pseudomonas aeruginosa ATCC #15442; test: MIC / synergy index test in 96 well microtiter plates, Gram negative bacteria
Procedure: as §1

Oc1ccccc1-c1ccccc1 [OPP]
Synergy of biocide paired with surfactant ([1]; paired with Surf. D): no synergy

O=C([O-])c1ccccc1.[Na+] [Sodium Benzoate]
CB (MIC of compound B acting alone) ([2]; B: Sodium Benzoate, inoculum 1.156E+06): 5998 ppm | Synergy of biocide paired with surfactant ([1]; paired with Surf. A): no synergy | CB (MIC of compound B acting alone) ([3]; B: Sodium Benzoate, C. albicans ATCC#10203, 48 hrs, Media PDB, inoculum 5.726E+05 CFU/ml): 1200 ppm | CB (MIC of compound B acting alone) ([4]; B: Sodium Benzoate, Media 1/10 TSB, inoculum 1.808E+05): 30000 ppm | CB (MIC of compound B acting alone) ([4]; B: Sodium benzoate, Media 1/10TSB, inoculum 1.808E+06 CFU/ml): 30000 ppm | CB (MIC of compound B acting alone) ([5]; B: Sodium Benzoate, Ps. aeruginosa ATCC#15442, 48 hrs, Media 1/10TSB, inoculum 5.727E+07 CFU/ml): 14991 ppm

CCCCCCCCCCCCCC[P+](CCCC)(CCCC)CCCC.[Cl-] [TTPC]
ratio of surfactant to biocide where synergy was observed ([1]; combination with Surf. E): 1:0.2 or greater

Cn1sc2ccccc2c1=O [MBIT]
ratio of surfactant to biocide where synergy was observed ([1]; combination with Surf. D): 1:0.05 or worse

CCCCCCCCCC[N+](C)(C)CCCCCCCCCC.[Cl-] [DIDAC]
ratio of surfactant to biocide where synergy was observed ([1]; combination with Surf. A): 1:0.2 or greater | ratio of surfactant to biocide where synergy was observed ([1]; combination with Surf. D): 1:0.2 or greater

CC1(C)C(=O)N(CO)C(=O)N1CO [DMDMH]
Synergy of biocide paired with surfactant ([1]; paired with Surf. D): no synergy | Synergy of biocide paired with surfactant ([1]; paired with Surf. E): no synergy

CCC12COCN1COC2 [CS-1246]
Synergy of biocide paired with surfactant ([1]; paired with Surf. D): no synergy

CCCCNC(=O)OCC#CI [IPBC]
ratio of surfactant to biocide where synergy was observed ([1]; combination with Surf. A): 1:0.2 or greater | ratio of surfactant to biocide where synergy was observed ([1]; combination with Surf. D): 1:0.05 or worse | ratio of surfactant to biocide where synergy was observed ([1]; combination with Surf. E): 1:0.2 or greater

CCCCCCCCn1sccc1=O [OIT]
ratio of surfactant to biocide where synergy was observed ([1]; combination with Surf. D): 1:0.2 or greater | ratio of surfactant to biocide where synergy was observed ([1]; combination with Surf. E): 1:0.2 or greater

O=[N+]([O-])C(CO)(CO)CO [TRIS NITRO]
Synergy of biocide paired with surfactant ([1]; paired with Surf. A): no synergy

C/C=C/C=C/C(=O)[O-].[K+] [Potassium Sorbate]
MIC ([2]; inoculum 1.156E+06 (table with Surf. D)): 6000 µg/mL | MIC ([2]; inoculum 1.156E+06 CFU/ml (table with Surf. A)): 1000 µg/mL | MIC ([2]; inoculum 1.156E+06 CFU/ml (table with Surf. E)): 1000 µg/mL | MIC ([3]; read-out: CB (MIC of compound B acting alone), B: Potassium Sorbate, C. albicans ATCC#10203, Media PDB, inoculum 1.156E+06 CFU/ml): 800 µg/mL | MIC ([3]; read-out: CB (MIC of compound B acting alone), B: Potassium Sorbate, C. albicans ATCC#10203, Media PDB, inoculum 1.808E+06 CFU/ml): 600 µg/mL | MIC ([3]; read-out: CB (MIC of compound B acting alone), B: Potassium Sorbate, C. albicans ATCC#10203, Media PDB, inoculum 5.726E+05 CFU/ml): 1200 µg/mL | CB (MIC of compound B acting alone) ([4]; B: Potassium Sorbate, Media 1/10TSB, inoculum 1.808E+06 CFU/ml): 30000 ppm | MIC ([4]; Staphylococcus aureus, ATCC6538, 24 h, read-out: CB (MIC of compound B acting alone)): 30000 µg/mL | MIC ([5]; Pseudomonas aeruginosa, ATCC15442, 24 h, read-out: CB (MIC of compound B acting alone)): 15000 µg/mL
